Results reported in US6703216B2, “Methods, compositions and apparatuses for detection of gamma-hydroxybutyric acid (GHB)” (priority 2002, dated 2004).
Where two headings read alike, the source gives them in different places.

How the values were obtained:
[1] = target: T1, GHB-DH fusion protein (Cupriavidus necator, UniProt Q59104); assay type: biochemical, Ralstonia eutropha; design: made in house; host or cells: E. coli pLysS cells (Novagene), vector pGEX-2T/GHB-DH
Procedure: A number of potential stabilizing agents were tested for their suitability in stabilizing a formulation of a GST fusion protein comprising the R. eutropha SSA reductase. Enzymatic activity of the purified fusion protein was studied after storage in different formulations for 21 days at 4° C. […] A range of concentrations of ammonium sulfate and glycerol were tested. […] GHB-DH may contain bound iron and copper ions (Wolf, 1995), which chelating agents can sequester and thereby denature and/or inactivate the oxidoreductase.
Enzymatic assay for GHB based on formation of NADH. GHB-DH activity was assayed at 23° C. in 1 ml of buffer (97 mM 2-amino-2-methyl-1,3-propanediol (AMPD) adjusted to pH 8.5 with HCl) containing 14 μg purified fusion protein and 1 mM NAD^+ in a cuvette of 1 cm path length at 23° C. (Valentin, 1995). Reaction was initiated by the addition of GHB to 20 mM, and formation of NADH was monitored by the increase in absorbance at 334 nm (FIG. 4A).
Stability of fusion protein. The GHB-DH enzymatic activity of R. eutropha GHB-DH fusion protein was studied after storage for 21 days at 4° C. under various conditions (FIG. 5). Fourteen μg of protein was assayed using the method described in Example 4. Test enzyme solutions included the crude lysate, purified fusion protein at 7 mg/ml in 50 mM NaCl and 30 mM MOPS adjusted to pH 7.4 with NaOH, and purified fusion protein at 7 mg/ml in the same buffer also containing potential stabilizing agents.

[2] = target: purified GHB-DH fusion protein (Cupriavidus necator, UniProt Q59104); details: for weaker affinity for GHB-DH than GHB: ethanol relative to GHB
[3] = target: T1, GHB-DH fusion protein; assay type: biochemical, Ralstonia eutropha; design: made in house; host or cells: E. coli pLysS cells (Novagene), vector pGEX-2T/GHB-DH; remark: listed apart in the source
[4] = test system: O=C(O)CCCO; test: purified protein, by the assay type; details: other: GHB as substrate, 5 μg fusion protein, pH 8.5, 23° C.
[5] = 150-pound person, cited from earlier work
[6] = target: T1, GHB-DH fusion protein; test: Detection of GHB in human urine on filter paper
[7] = target: T2, R. eutropha GHB-DH (Cupriavidus necator, UniProt Q59104); test: Economical dipstick assay for GHB in alcoholic beverages after evaporation
[8] = target: T2, R. eutropha GHB-DH; assay type: biochemical, Ralstonia eutropha; design: made in house; host or cells: E. coli pLysS cells (Novagene), vector pGEX-2T/GHB-DH; details: 20 mM GHB in the same concentrations of ethanol
[9] = purified fusion protein 7 mg/ml, 21 days at 4° C.

oxidized glutathione
effect of agent on enzyme activity during storage [1, 9]: drastically diminished enzyme activity | effect of agent on enzyme activity during storage ([1]; purified fusion protein 7 mg/ml, 21 days at 4° C., listed as oxidized GSH): nearly totally inactivated enzyme activity

CCO [Ethanol, ethanol]
weaker affinity for GHB-DH than GHB [2]: about 200 fold | weaker affinity for GHB-DH than GHB ([2]; listed as ethanol): approximately 200 fold | color produced ([3]; all concentrations of ethanol tested): little or no color

purified GHB-DH fusion protein (Cupriavidus necator)
Km [4]: 2190 ± 130 µM

reduced glutathione
effect of agent on enzyme activity during storage [1, 9]: drastically diminished enzyme activity | effect of agent on enzyme activity during storage ([1]; purified fusion protein 7 mg/ml, 21 days at 4° C., listed as reduced GSH): nearly totally inactivated enzyme activity

OCC(O)CO [glycerol]
effect of agent on enzyme activity during storage ([1]; 5-20% glycerol, 4° C.): retained high degrees of enzyme activity | effect of agent on enzyme activity during storage ([1]; 10% glycerol, 21 days, 4° C.): greatest retention | effect of agent on enzyme activity during storage ([1]; 50% glycerol at 4° C.): deleterious

O[C@H](CS)[C@H](O)CS (racemic) [DTT, dithiothreitol]
effect of agent on enzyme activity during storage [1, 9]: nearly completely inactivated enzyme activity | effect of agent on enzyme activity during storage ([1]; purified fusion protein 7 mg/ml, 21 days at 4° C., listed as dithiothreitol): drastically diminished enzyme activity

N.N.O=S(=O)(O)O [ammonium sulfate]
effect of agent on enzyme activity during storage [1, 9]: somewhat deleterious | enzyme activity lost during storage ([1]; range of concentrations of ammonium sulfate, 21 days at 4° C.): ≥ 50%

O=C(O)CCCO [GHB, 4-hydroxy-butanoic acid]
Vmax ([2]; GHB as substrate (FIG. 6A)): 0.049±0.001 A/min/μg | Vmax ([2]; GHB as substrate, 5 μg fusion protein): 0.049±0.001 Absorbance/min/μg fusion protein | effect in a person ([5]; 1-gram dose): low degree of effect | effect in a person ([5]; 2.5-gram dose): coma | color produced ([6]; 0.1 mM GHB in human urine): slight but definite purple | color produced ([6]; 0.3 mM GHB in human urine): substantial purple | GHB concentration in urine producing color ([6]; human urine, dried or not dried, 5 minutes): ≤ 0.1 mM | color developed ([7]; 20 mM GHB in 25 alcoholic beverages, 2 minutes): intense purple color | GHB concentration detected in alcoholic beverages ([7]; evaporated sample, 2 minutes reaction at 23° C.): ≤ 1 mM | color produced on paper [8]: intense purple | GHB concentration readily detected ([3]; conjugated filters, assay buffer, 23° C.): ≤ 2 mM

O=C(O)CN(CCN(CC(=O)O)CC(=O)O)CC(=O)O [EDTA, ethylene diamine tetraacetic acid]
effect of agent on enzyme activity during storage [1, 9]: nearly totally inactivated enzyme activity | effect of agent on enzyme activity during storage ([1]; purified fusion protein 7 mg/ml, 21 days at 4° C., listed as ethylene diamine tetraacetic acid): drastically diminished enzyme activity

OCCS [BME, 2-mercaptoethanol]
effect of agent on enzyme activity during storage [1, 9]: nearly completely inactivated enzyme activity | effect of agent on enzyme activity during storage ([1]; purified fusion protein 7 mg/ml, 21 days at 4° C., listed as beta-mercaptoethanol): drastically diminished enzyme activity
